We go through 32 compounds from patent US8586505B2 (SDS Biotech K. K., priority 2009, dated 2013).

Structures are written as SMILES.

Holding throughout (assay type): in vivo
The subject of one assay is Phytophthora infestans. Briefly: whole plant or invertebrate. To be noted: in Solanum lycopersicum, 96 h, read-out: Determination of control effect (preventive value).
Assay [1] relates to Pseudoperonospora cubensis. Briefly: Test of examining control effect on Pseudoperonospora cubensis (potted cucumber plants). Particulars: 96 h, 10% wettable powder adjusted to 125 ppm, 15 ml/pot sprayed on potted cucumber plants one day before spray inoculation, assessed after 1 day wet chamber and 3 days greenhouse, read-out: Determination of control effect (preventive value) on Pseudoperonospora cubensis. In a few lines:
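Preventive treatment: 125 ppm sample agent solution (from 10% wettable powder) sprayed at 15 ml/pot on 2.5-leaf Sagamihanjiro cucumbers, then P. cubensis inoculated next day at 1.0×10^4 cells/ml. Incubation was 1 day wet at 21° C plus 3 days greenhouse. Lesion area rate compared with untreated gives preventive value (≥60% high).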

In another assay the test system is Sphaerotheca fuliginea. Briefly: Test of examining control effect on Sphaerotheca fuliginea (potted cucumber plants). To be noted: Podosphaera fuliginea, 336 h; 10% wettable powder adjusted to 125 ppm, 15 ml/pot sprayed on potted cucumber plants one day before spray inoculation; assessed after 14 days in greenhouse; read-out: Determination of control effect (preventive value) on Sphaerotheca fuliginea. The procedure, abridged: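 Control effect rated high at preventive value 60–100% and low below 60%, from lesion area relative to untreated plants 14 days after spray inoculation with S. fuliginea (1.0×10^5 cells/ml). Compound applied at 125 ppm as wettable-powder spray one day before inoculation, on 2nd-leaf-stage Sagamihanjiro cucumber.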

Consider `CC(CC#Cc1c(Cl)cccc1Cl)Nc1ncnc2sccc12` (stereo not drawn) [compound 251], for which the pest or weed control at 125 ppm in the assay on Phytophthora infestans lay in the range of 0 to 60%. The pest or weed control at 125 µg/mL (in assay [1]; in the assay with Sphaerotheca fuliginea) was 60 to 100% in each case.
Turning to `CC(CC#Cc1c(Cl)cccc1C(F)(F)F)Nc1ncnc2sccc12` (stereo not drawn) [compound 252], the pest or weed control at 125 ppm with Phytophthora infestans fell in the range of 0 to 60%. Also, the pest or weed control at 125 µg/mL (in assay [1]; in the assay with Sphaerotheca fuliginea) was 60 to 100% throughout.
As for `CC(CC#Cc1ccc(Cl)c(C(F)(F)F)c1)Nc1ncnc2sccc12` (stereo not drawn) [compound 254], the pest or weed control at 125 ppm in the assay with Phytophthora infestans was 0 to 60%. Moreover, the pest or weed control at 125 µg/mL in assay [1] fell in the range of 60 to 100%; in the assay with Sphaerotheca fuliginea, 0 to 60%.
In the case of `CC(CC#Cc1ccc(S(C)(=O)=O)cc1Cl)Nc1ncnc2sccc12` (stereo not drawn) [compound 256], in the assay with Phytophthora infestans, the pest or weed control at 125 ppm was in the range of 60 to 100%. Moreover, the pest or weed control at 125 µg/mL (in assay [1]; in the assay on Sphaerotheca fuliginea) was 60 to 100% each time.
Turning to `CC(CC#Cc1ccc(C#N)cc1C(F)(F)F)Nc1ncnc2sccc12` (stereo not drawn) [compound 260], the pest or weed control at 125 ppm in the assay on Phytophthora infestans is 60 to 100%. Besides, the pest or weed control at 125 µg/mL (in assay [1]; with Sphaerotheca fuliginea) was 60 to 100% throughout.
For `CC(CC#Cc1ncccc1C(F)(F)F)Nc1ncnc2sccc12` (stereo not drawn) [compound 264], the pest or weed control at 125 ppm with Phytophthora infestans is 60 to 100%. Further, the pest or weed control at 125 µg/mL (in assay [1]; with Sphaerotheca fuliginea) was 60 to 100% in each case.
For the compound `CC(CC#Cc1nccs1)Nc1ncnc2sccc12` (stereo not drawn) [compound 265], the pest or weed control at 125 ppm with Phytophthora infestans lay in the range of 60 to 100%. In addition, the pest or weed control at 125 µg/mL (in assay [1]; in the assay on Sphaerotheca fuliginea) was 60 to 100% each time.
As to `Cc1nc(C#CCC(C)Nc2ncnc3sccc23)cs1` (stereo not drawn) [compound 266], the pest or weed control at 125 ppm in the assay on Phytophthora infestans was 60 to 100%. In addition, the pest or weed control at 125 µg/mL (in assay [1]; in the assay with Sphaerotheca fuliginea) was 60 to 100% in each case.
Consider `CCCC(CC#Cc1ccccc1)Nc1ncnc2sccc12` (stereo not drawn) [compound 268], for which, in the assay with Phytophthora infestans, the pest or weed control at 125 ppm was 0 to 60%. In addition, the pest or weed control at 125 µg/mL (in assay [1]; in the assay on Sphaerotheca fuliginea) was 60 to 100% each time.
For `CC(CC#Cc1ccccc1)Nc1ncnc2ccccc12` (stereo not drawn) [compound 270], in the assay with Phytophthora infestans, the pest or weed control at 125 ppm lay in the range of 0 to 60%. In addition, the pest or weed control at 125 µg/mL (in assay [1]; in the assay with Sphaerotheca fuliginea) was 60 to 100% each time.
For `CC(CC#Cc1ccc(F)cc1)Nc1ncnc2ccccc12` (stereo not drawn) [compound 271], the pest or weed control at 125 ppm in the assay with Phytophthora infestans fell in the range of 60 to 100%. In addition, the pest or weed control at 125 µg/mL (in assay [1]; with Sphaerotheca fuliginea) was 60 to 100% in each case.
With `CC(CC#Cc1ccccc1Cl)Nc1ncnc2ccccc12` (stereo not drawn) [compound 272], the pest or weed control at 125 ppm in the assay on Phytophthora infestans is 60 to 100%. In addition, the pest or weed control at 125 µg/mL (in assay [1]; in the assay with Sphaerotheca fuliginea) was 60 to 100% in each case.
For `CC(CC#Cc1ccc(Cl)cc1)Nc1ncnc2ccccc12` (stereo not drawn) [compound 273], the pest or weed control at 125 ppm with Phytophthora infestans was in the range of 60 to 100%. The pest or weed control at 125 µg/mL (in assay [1]; with Sphaerotheca fuliginea) was 60 to 100% throughout.
As for `CC(CC#Cc1ccccc1C(F)(F)F)Nc1ncnc2ccccc12` (stereo not drawn) [compound 274], the pest or weed control at 125 ppm in the assay with Phytophthora infestans is 60 to 100%. Moreover, the pest or weed control at 125 µg/mL (in assay [1]; with Sphaerotheca fuliginea) was 60 to 100% in each case.
`CC(CC#Cc1ccc(C(F)(F)F)cc1)Nc1ncnc2ccccc12` (stereo not drawn) [compound 275]: the pest or weed control at 125 ppm in the assay with Phytophthora infestans fell in the range of 60 to 100%. For the same compound, the pest or weed control at 125 µg/mL (in assay [1]; with Sphaerotheca fuliginea) was 60 to 100% each time.
On to `COc1ccccc1C#CCC(C)Nc1ncnc2ccccc12` (stereo not drawn) [compound 276], for which, in the assay with Phytophthora infestans, the pest or weed control at 125 ppm was 60 to 100%. Further, the pest or weed control at 125 µg/mL in assay [1] lay within 60 to 100%; in the assay on Sphaerotheca fuliginea, 0 to 60%.
On to `COCc1ccccc1C#CCC(C)Nc1ncnc2ccccc12` (stereo not drawn) [compound 278], for which the pest or weed control at 125 ppm in the assay on Phytophthora infestans was 60 to 100%. Further, the pest or weed control at 125 µg/mL (in assay [1]; in the assay with Sphaerotheca fuliginea) was 60 to 100% in each case.
`Cc1ccc(C#CCC(C)Nc2ncnc3ccccc23)cc1` (stereo not drawn) [compound 279]: in the assay with Phytophthora infestans, the pest or weed control at 125 ppm is 60 to 100%. The pest or weed control at 125 µg/mL (in assay [1]; in the assay on Sphaerotheca fuliginea) was 60 to 100% each time.
As to `CC(CC#Cc1ccc(C(F)(F)F)cc1C(F)(F)F)Nc1ncnc2ccccc12` (stereo not drawn) [compound 280], in the assay on Phytophthora infestans, the pest or weed control at 125 ppm lay in the range of 0 to 60%. For the same compound, the results for the pest or weed control at 125 µg/mL (in assay [1]; in the assay on Sphaerotheca fuliginea) were 60 to 100% and 0 to 60%, respectively.
For `CC(CC#Cc1ccc(C(F)(C(F)(F)F)C(F)(F)F)cc1Cl)Nc1ncnc2ccccc12` (stereo not drawn) [compound 281], the pest or weed control at 125 ppm with Phytophthora infestans was 0 to 60%. Moreover, the pest or weed control at 125 µg/mL (in assay [1]; in the assay with Sphaerotheca fuliginea) was 60 to 100% each time.
Consider `CC(CC#Cc1ccc(C(F)(F)F)cc1Cl)Nc1ncnc2ccccc12` (stereo not drawn) [compound 282], for which the pest or weed control at 125 ppm with Phytophthora infestans was in the range of 0 to 60%. The pest or weed control at 125 µg/mL (in assay [1]; in the assay with Sphaerotheca fuliginea) was 60 to 100% throughout.
For `CC(CC#Cc1ccc(Cl)c(C(F)(F)F)c1)Nc1ncnc2ccccc12` (stereo not drawn) [compound 284], the pest or weed control at 125 ppm in the assay with Phytophthora infestans fell in the range of 0 to 60%. Further, the pest or weed control at 125 µg/mL (in assay [1]; in the assay with Sphaerotheca fuliginea) was 60 to 100% throughout.
Consider `COc1ccc(C#CCC(C)Nc2ncnc3ccccc23)c(C(F)(F)F)c1` (stereo not drawn) [compound 287], for which, in the assay with Phytophthora infestans, the pest or weed control at 125 ppm lay in the range of 0 to 60%. Also, the pest or weed control at 125 µg/mL (in assay [1]; in the assay with Sphaerotheca fuliginea) was 60 to 100% throughout.
As for `CC(CC#Cc1ccccc1S(C)(=O)=O)Nc1ncnc2ccccc12` (stereo not drawn) [compound 290], the pest or weed control at 125 ppm with Phytophthora infestans lay within 60 to 100%. The pest or weed control at 125 µg/mL (in assay [1]; with Sphaerotheca fuliginea) was 60 to 100% in each case.
Turning to `Cc1nc(C#CCC(C)Nc2ncnc3ccccc23)cs1` (stereo not drawn) [compound 292], the pest or weed control at 125 ppm in the assay with Phytophthora infestans lay in the range of 60 to 100%. Also, the pest or weed control at 125 µg/mL (in assay [1]; in the assay on Sphaerotheca fuliginea) was 60 to 100% in each case.
With `CC(CC#Cc1csc(Oc2ccccc2)n1)Nc1ncnc2ccccc12` (stereo not drawn) [compound 293], in the assay on Phytophthora infestans, the pest or weed control at 125 ppm fell in the range of 60 to 100%. The pest or weed control at 125 µg/mL (in assay [1]; in the assay on Sphaerotheca fuliginea) was 60 to 100% throughout.
As to `CCC(CC#Cc1ccc(F)cc1)Nc1ncnc2ccccc12` (stereo not drawn) [compound 294], the pest or weed control at 125 ppm in the assay with Phytophthora infestans lay within 0 to 60%. The pest or weed control at 125 µg/mL (in assay [1]; with Sphaerotheca fuliginea) was 60 to 100% throughout.
Consider `CCC(CC#Cc1ccc(F)cc1C(F)(F)F)Nc1ncnc2ccccc12` (stereo not drawn) [compound 295], for which the pest or weed control at 125 ppm with Phytophthora infestans lay in the range of 0 to 60%. In addition, the pest or weed control at 125 µg/mL (in assay [1]; in the assay on Sphaerotheca fuliginea) was 60 to 100% in each case.
`C=CC(CC#Cc1ccccc1)Nc1ncnc2ccccc12` (stereo not drawn) [compound 296]: the pest or weed control at 125 ppm with Phytophthora infestans was in the range of 60 to 100%. For the same compound, the pest or weed control at 125 µg/mL (in assay [1]; in the assay with Sphaerotheca fuliginea) was 60 to 100% throughout.
As for `C=CC(CC#Cc1ccc(F)cc1)Nc1ncnc2ccccc12` (stereo not drawn) [compound 297], the pest or weed control at 125 ppm in the assay on Phytophthora infestans lay within 0 to 60%. In addition, the pest or weed control at 125 µg/mL (in assay [1]; in the assay with Sphaerotheca fuliginea) was 60 to 100% throughout.
`CC(C)C(CC#Cc1ccccc1)Nc1ncnc2ccccc12` (stereo not drawn) [compound 298]: the pest or weed control at 125 ppm in the assay on Phytophthora infestans fell in the range of 60 to 100%. For the same compound, the pest or weed control at 125 µg/mL (in assay [1]; in the assay with Sphaerotheca fuliginea) was 60 to 100% throughout.
For the compound `OCC(CC#Cc1ccccc1)Nc1ncnc2ccccc12` (stereo not drawn) [compound 299], the pest or weed control at 125 ppm in the assay with Phytophthora infestans lay within 60 to 100%. For the same compound, the pest or weed control at 125 µg/mL in assay [1] was in the range of 60 to 100%; with Sphaerotheca fuliginea it was 0 to 60%.
